In the supplement of paper PMC10307832:

Experiments:
Assay in all cases: relative viability (nuclei count vs DMSO), 5 days (fraction); higher = more cells survive
[1] = compound: Nc1nc2[nH]cc(CCc3ccc(C(=O)N[C@@H](CCC(=O)O)C(=O)O)cc3)c2c(=O)[nH]1 [Pemetrexed] + Cc1nc(NC(=O)N2CCC[C@H]2C(N)=O)sc1-c1ccnc(C(C)(C)C(F)(F)F)c1 [Alpelisib] (partner 2 µM)
Procedure, shortened: (§1)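 Each reported value is a median over duplicate plates. It expresses relative viability: treated-well nuclei count divided by vehicle-well nuclei count. Lung cancer cell lines in 1536-well plates were dosed by pin tool a day after seeding, alone with one drug or with a fixed anchor-drug dose plus five library-drug doses (not always all listed) in √10 steps, and nuclei were counted after 5 days.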

[2] = compound: Nc1nc2[nH]cc(CCc3ccc(C(=O)N[C@@H](CCC(=O)O)C(=O)O)cc3)c2c(=O)[nH]1 [Pemetrexed] + CC(C)C[C@H](NC(=O)[C@H](Cc1ccccc1)NC(=O)c1cnccn1)B(O)O [Bortezomib] (partner 0.002 µM)
Procedure, shortened: as §1

[3] = compound: Nc1nc2[nH]cc(CCc3ccc(C(=O)N[C@@H](CCC(=O)O)C(=O)O)cc3)c2c(=O)[nH]1 [Pemetrexed] + C[C@@H](Oc1cc(-c2cnn(C3CCNCC3)c2)cnc1N)c1c(Cl)ccc(F)c1Cl [Crizotinib] (partner 1 µM)
Procedure, shortened: as §1

[4] = compound: Nc1nc2[nH]cc(CCc3ccc(C(=O)N[C@@H](CCC(=O)O)C(=O)O)cc3)c2c(=O)[nH]1 [Pemetrexed] + Cc1nc(Nc2ncc(C(=O)Nc3c(C)cccc3Cl)s2)cc(N2CCN(CCO)CC2)n1 [Dasatinib] (partner 0.075 µM)
Procedure, shortened: as §1

Cell Line	relative viability ([1]; first compound 0.002 µM)	relative viability ([1]; first compound 0.006325 µM)	relative viability ([1]; first compound 0.02 µM)	relative viability ([1]; first compound 0.06325 µM)	relative viability ([1]; first compound 0.2 µM)	relative viability ([2]; first compound 0.002 µM)	relative viability ([2]; first compound 0.006325 µM)	relative viability ([2]; first compound 0.02 µM)	relative viability ([2]; first compound 0.06325 µM)	relative viability ([2]; first compound 0.2 µM)	relative viability ([3]; first compound 0.002 µM)	relative viability ([3]; first compound 0.006325 µM)	relative viability ([3]; first compound 0.02 µM)	relative viability ([3]; first compound 0.2 µM)	relative viability ([4]; first compound 0.002 µM)	relative viability ([4]; first compound 0.006325 µM)	relative viability ([4]; first compound 0.02 µM)	relative viability ([4]; first compound 0.06325 µM)	relative viability ([4]; first compound 0.2 µM)	relative viability ([3]; first compound 0.06325 µM)
NCI-H661	0.732	0.563	0.621	0.636	0.794	0.945	0.88	0.891	0.727	0.648	1.06	1.03	0.949	0.944	0.882	0.84	0.958	0.945	0.827	–
CAL-12T	1.03	0.976	1.11	1.15	1.05	0.812	0.935	1.16	0.9	0.939	0.647	0.67	0.971	0.643	0.327	0.322	0.515	0.43	0.5	0.65
HARA	0.822	0.814	0.862	0.799	0.275	0.567	1.12	1.17	0.846	0.453	1.27	1.02	1.03	0.216	0.231	0.237	0.327	0.2	0.162	0.98
NCI-H596	0.409	0.485	0.593	0.39	0.374	1.22	0.869	1.14	0.851	0.71	0.854	0.967	1.09	0.665	0.634	0.642	0.464	0.427	0.414	0.78
LU99A	0.517	0.556	0.492	0.498	0.346	1.05	1.09	1.17	0.952	0.948	0.543	0.621	0.62	0.325	0.504	0.441	0.459	0.516	0.542	0.594
LC-2-ad	0.888	0.936	0.833	0.232	0.187	0.981	1.01	1.02	0.215	0.148	0.425	0.473	0.457	0.29	0.454	0.525	0.347	0.208	0.222	0.263
NCI-H1650	–	–	–	–	–	0.208	0.208	0.204	0.22	0.2	0.971	0.902	0.939	0.332	0.42	0.32	0.326	0.235	0.23	0.689
NCI-H1915	0.995	1.04	1.03	1.09	1.1	0.937	1.02	1.04	0.965	0.943	0.876	0.834	0.936	0.914	0.236	0.313	0.313	0.306	0.319	0.877
ABC-1	1.13	0.937	1.28	1.03	0.87	0.244	0.297	0.322	0.214	0.292	0.997	1.2	1.18	1.05	0.785	0.591	0.626	0.546	0.422	1
HCC-44	0.771	0.732	0.854	0.785	0.602	0.859	0.934	1.03	0.888	0.681	0.758	0.775	0.84	0.574	–	–	–	–	–	0.847
HCC-78	–	0.316	0.324	0.228	0.174	0.369	0.436	0.46	0.294	0.322	–	0.304	0.337	0.197	0.305	0.453	0.363	0.241	0.246	0.25
LXF-289	1.04	1	1.07	1.05	0.969	0.987	0.993	1.08	0.976	0.943	0.808	0.832	0.841	0.79	0.175	0.192	0.239	0.281	0.217	0.843
201T	1.07	1.05	1.03	1	0.955	1.05	1.11	1.12	1.09	1.03	0.941	1.03	1.05	0.999	0.59	0.554	0.592	0.559	0.507	1.07
NCI-H1734	0.694	0.731	0.629	0.632	0.698	0.911	1.01	0.929	0.944	0.705	0.721	0.647	0.745	0.686	0.388	0.445	0.49	0.433	0.381	0.723
NCI-H1623	–	–	–	–	–	–	–	–	–	–	–	–	–	–	0.511	0.539	0.458	0.517	0.509	–
NCI-H2126	0.737	0.758	0.75	0.703	0.742	1.04	1.14	1.19	1.06	1.06	0.967	0.96	1.02	0.965	0.571	0.607	0.625	0.548	0.517	1.03
LOU-NH91	0.711	0.757	0.745	0.632	0.529	0.515	0.558	0.52	0.467	0.472	0.701	0.747	0.988	0.504	0.495	0.576	0.599	0.457	0.345	0.636
NCI-H1792	0.685	0.731	0.806	0.788	0.634	0.931	0.969	0.966	0.943	0.927	0.993	0.972	0.987	0.937	0.782	0.789	0.938	0.747	0.81	0.974
NCI-H1651	0.951	0.948	0.939	0.952	0.93	0.992	0.919	0.945	0.892	0.911	0.879	0.792	0.92	0.851	0.388	0.357	0.439	0.346	0.428	0.864
A549	0.695	0.682	0.946	0.785	0.774	–	–	–	–	–	0.672	0.653	0.971	0.78	–	–	–	–	–	0.761

Cell Line	relative viability ([1]; first compound 0.002 µM)	relative viability ([1]; first compound 0.006325 µM)	relative viability ([1]; first compound 0.02 µM)	relative viability ([1]; first compound 0.06325 µM)	relative viability ([1]; first compound 0.2 µM)	relative viability ([2]; first compound 0.002 µM)	relative viability ([2]; first compound 0.006325 µM)	relative viability ([2]; first compound 0.02 µM)	relative viability ([2]; first compound 0.06325 µM)	relative viability ([2]; first compound 0.2 µM)	relative viability ([3]; first compound 0.002 µM)	relative viability ([3]; first compound 0.006325 µM)	relative viability ([3]; first compound 0.02 µM)	relative viability ([3]; first compound 0.2 µM)	relative viability ([4]; first compound 0.002 µM)	relative viability ([4]; first compound 0.006325 µM)	relative viability ([4]; first compound 0.02 µM)	relative viability ([4]; first compound 0.06325 µM)	relative viability ([4]; first compound 0.2 µM)	relative viability ([3]; first compound 0.06325 µM)
HCC-366	0.448	0.507	0.365	0.452	0.376	0.97	1.04	1.13	1.05	0.661	0.49	0.404	0.701	0.476	0.574	0.613	0.683	0.71	0.527	0.586
EKVX	0.827	0.89	0.943	0.827	0.615	0.939	0.946	0.971	0.979	0.553	0.816	0.841	0.907	0.508	0.572	0.544	0.615	0.336	0.479	0.856
NCI-H1993	0.731	0.645	0.661	0.754	0.785	1.04	1.08	1.22	0.99	0.695	0.877	0.878	0.894	0.982	0.325	0.606	0.546	0.496	0.358	0.879
NCI-H522	–	–	–	–	–	–	–	–	–	–	–	–	–	–	0.881	0.822	0.967	0.848	0.933	–
NCI-H1703	0.319	0.38	0.333	0.338	0.379	0.277	0.224	0.605	0.248	0.271	0.687	0.566	0.763	0.739	–	–	–	–	–	0.628
NCI-H23	0.666	0.532	0.741	0.503	0.601	0.865	0.924	1.02	1.06	0.725	0.507	0.467	0.589	0.425	0.783	0.762	0.933	0.74	0.781	0.438
IA-LM	0.797	0.716	0.737	0.771	0.67	0.81	0.82	0.943	0.695	0.641	0.807	0.665	0.772	0.634	–	–	–	–	–	0.804
SW 900	–	–	–	–	–	–	–	–	–	–	–	–	–	–	0.637	0.602	0.657	0.449	0.477	–
NCI-H358	0.917	0.79	0.538	0.314	0.27	–	–	–	–	–	0.555	0.524	0.558	0.179	0.145	0.176	0.205	0.167	0.165	0.287
LK-2	–	1.07	1.12	0.962	0.773	–	–	–	–	–	–	0.252	0.221	0.247	0.289	0.198	0.318	0.341	0.254	0.249
NCI-H2342	–	–	–	–	–	–	–	–	–	–	–	–	–	–	0.257	0.322	0.351	0.325	0.321	–
ChaGo-K-1	–	–	–	–	–	1.09	1.11	1.05	0.332	0.307	1.15	1	0.969	0.344	0.59	0.555	0.591	0.266	0.237	0.366
NCI-H2170	0.723	0.831	0.905	0.869	0.824	–	–	–	–	–	1.3	1.03	1.1	1.09	0.581	0.631	0.612	0.505	0.575	1.2
Calu-6	0.995	1.01	1.05	0.918	0.954	0.963	0.937	1.01	0.971	0.942	0.814	0.754	0.922	0.68	–	–	–	–	–	0.72
NCI-H1395	0.964	0.916	1.14	1.14	1.02	–	–	–	–	–	–	–	–	–	0.441	0.471	0.481	0.369	0.401	–
NCI-H1793	0.672	0.692	0.83	0.624	0.677	–	–	–	–	–	–	–	–	–	0.312	0.294	0.46	0.375	0.412	–
SK-MES-1	0.92	0.732	1.04	0.864	0.8	–	–	–	–	–	1.06	0.938	0.99	0.832	0.411	0.367	0.516	0.328	0.339	1.01
NCI-H1299	1.07	1.03	1.01	1.01	1.06	1.02	1.01	1.03	1.03	0.987	0.962	0.942	0.98	0.927	–	–	–	–	–	0.881
EBC-1	0.747	0.848	0.939	0.836	0.518	0.57	0.5	0.642	0.54	0.542	0.175	0.174	0.209	0.183	–	–	–	–	–	0.165
NCI-H1944	0.674	0.751	0.869	0.789	0.766	–	–	–	–	–	0.911	1.02	1.19	1	–	0.201	0.195	0.212	0.217	1.11
